Experimental data taken from patent US20230086703A1, “N-(4-(5-chloropyridin-3-yl)phenyl)-2-(2-(cyclopropanesulfonamido)pyrimidin-4-yl) butanamide derivatives and related compounds as human CTPS1 inhibitors for the treatment of proliferative diseases” (Step Pharma S.A.S., priority 2019, published 2023).
Where two headings read alike, the source gives them in different places.

Target: T1, human CTPS1 (Homo sapiens, UniProt P17812)
T1 construct: FLAG (with GG linker); His8 (with GG linker); purchased Proteros biostructures GmbH
T1 sequence (P17812 1-591): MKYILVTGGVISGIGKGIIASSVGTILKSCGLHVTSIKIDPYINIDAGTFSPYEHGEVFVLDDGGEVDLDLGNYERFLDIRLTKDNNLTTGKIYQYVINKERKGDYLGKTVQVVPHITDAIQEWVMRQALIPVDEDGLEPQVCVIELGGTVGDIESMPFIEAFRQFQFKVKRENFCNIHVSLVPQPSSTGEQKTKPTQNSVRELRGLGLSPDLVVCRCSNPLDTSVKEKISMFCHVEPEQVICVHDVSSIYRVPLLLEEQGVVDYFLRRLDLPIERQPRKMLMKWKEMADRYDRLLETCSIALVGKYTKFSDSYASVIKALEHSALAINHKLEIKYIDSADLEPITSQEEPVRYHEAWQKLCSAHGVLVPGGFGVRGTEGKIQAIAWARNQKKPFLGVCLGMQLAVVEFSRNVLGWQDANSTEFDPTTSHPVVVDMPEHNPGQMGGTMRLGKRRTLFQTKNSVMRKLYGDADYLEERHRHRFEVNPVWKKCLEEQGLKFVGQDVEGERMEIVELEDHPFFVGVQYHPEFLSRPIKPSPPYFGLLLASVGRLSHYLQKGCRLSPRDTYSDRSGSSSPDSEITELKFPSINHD
Test: Human CTPS1 enzyme inhibition, ADP-Glo Max assay
Format: biochemical
Summary of the method: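 Read-out is ADP-Glo Max luminescence: residual ATP depleted (60 min), then produced ADP converted back to ATP for luciferase detection (60 min). Beforehand, protein and compound were mixed for 10 min at 25 °C in Tris buffer pH 8.0 with MgCl2, Tween-20 and 2 mM L-cysteine. Results expressed as percentage inhibition per concentration.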

[1] = ADP-Glo Max assay, Table 10, read-out: Human CTPS1 Enzyme Inhibition, IC50 grouped by potency range (CTPS1)

CC(C)(C(=O)Nc1ccc(-c2cncc(Cl)c2)c(C(F)(F)F)c1)c1csc(NS(=O)(=O)C2CC2)n1 [T370, N-(4-(5-chloropyridin-3-yl)-3-(trifluoromethyl)phenyl)-2-(2-(cyclopropanesulfonamido)thiazol-4-yl)-2-methylpropanamide]
IC50 [1]: 1 to 10 µM

CC(C)(C(=O)Nc1ccc(-c2cccnc2)c(F)c1F)c1csc(NS(=O)(=O)C2CC2)n1 [T36, 2-(2-(cyclopropanesulfonamido)thiazol-4-yl)-N-(2,3-difluoro-4-(pyridin-3-yl)phenyl)-2-methylpropanamide]
IC50 [1]: 0.1 to 1 µM

CCCOc1cncc(-c2ccc(NC(=O)C(C)(C)c3csc(NS(=O)(=O)C4CC4)n3)cc2)n1 [T55, 2-(2-(cyclopropanesulfonamido)thiazol-4-yl)-2-methyl-N-(4-(6-propoxypyrazin-2-yl)phenyl)propanamide]
IC50 [1]: < 0.1 µM

CC(C)(C(=O)Nc1ccc(-c2cncc(Cl)n2)cn1)c1csc(NS(=O)(=O)C2CC2)n1 [T262, N-(5-(6-chloropyrazin-2-yl)pyridin-2-yl)-2-(2-(cyclopropanesulfonamido)thiazol-4-yl)-2-methylpropanamide]
IC50 [1]: < 0.1 µM

CN(C(=O)C(C)(C)c1csc(NS(=O)(=O)C2CC2)n1)c1ccc(-c2cccnc2)cc1 [T164, 2-(2-(cyclopropanesulfonamido)thiazol-4-yl)-N,2-dimethyl-N-(4-(pyridin-3-yl)phenyl)propanamide]
IC50 [1]: 1 to 10 µM

COc1ccccc1-c1ccc(NC(=O)Cc2csc(NS(=O)(=O)C3CC3)n2)cc1 [T246, 2-(2-(cyclopropanesulfonamido)thiazol-4-yl)-N-(2′-methoxy-[1,1′-biphenyl]-4-yl)acetamide]
IC50 [1]: 0.1 to 1 µM

COc1cncc(-c2ccc(NC(=O)Cc3csc(NS(=O)(=O)C4CC4)n3)cc2)n1 [T81, 2-(2-(cyclopropanesulfonamido)thiazol-4-yl)-N-(4-(6-methoxypyrazin-2-yl)phenyl)acetamide]
IC50 [1]: < 0.1 µM

CCC(CC)(C(=O)Nc1ccc(-c2cncc(C(F)(F)F)n2)cn1)c1csc(NS(=O)(=O)C2CC2)n1 [T147, 2-(2-(cyclopropanesulfonamido)thiazol-4-yl)-2-ethyl-N-(5-(6-(trifluoromethyl)pyrazin-2-yl)pyridin-2-yl)butanamide]
IC50 [1]: < 0.1 µM

O=C(Cc1csc(NS(=O)(=O)C2CC2)n1)Nc1ccc(-c2cncnc2)cc1 [T247, 2-(2-(cyclopropanesulfonamido)thiazol-4-yl)-N-(4-(pyrimidin-5-yl)phenyl)acetamide]
IC50 [1]: 0.1 to 1 µM

CCC(CC)(C(=O)Nc1ccc(-c2cncc(OC)n2)cc1)c1csc(NS(=O)(=O)C2CC2)n1 [T119, 2-(2-(cyclopropanesulfonamido)thiazol-4-yl)-2-ethyl-N-(4-(6-methoxypyrazin-2-yl)phenyl)butanamide]
IC50 [1]: < 0.1 µM

CC(C)Oc1cncc(-c2ccc(NC(=O)C(C)(C)c3csc(NS(=O)(=O)C4CC4)n3)nc2)n1 [T143, 2-(2-(cyclopropanesulfonamido)thiazol-4-yl)-N-(5-(6-isopropoxypyrazin-2-yl)pyridin-2-yl)-2-methylpropanamide]
IC50 [1]: < 0.1 µM

COc1cccc(-c2ccc(NC(=O)C(C)(C)c3csc(NS(=O)(=O)C4CC4)n3)cc2)n1 [T269, 2-(2-(cyclopropanesulfonamido)thiazol-4-yl)-N-(4-(6-methoxypyridin-2-yl)phenyl)-2-methylpropanamide]
IC50 [1]: 0.1 to 1 µM

CCOc1cncc(-c2ccc(NC(=O)C(C)(C)c3csc(NS(=O)(=O)C4CCC4)n3)cc2)n1 [T307, 2-(2-(cyclobutanesulfonamido)thiazol-4-yl)-N-(4-(6-ethoxypyrazin-2-yl)phenyl)-2-methylpropanamide]
IC50 [1]: < 0.1 µM

CCOc1cncc(-c2ccc(NC(=O)C3(c4ccnc(NS(=O)(=O)C5CC5)n4)CCC(N(C)CC(F)F)CC3)nc2)n1 (stereo not drawn) [P310]
IC50 (Table 12, ADP-Glo Max assay, read-out: CTPS1 (Human CTPS1 Enzyme Inhibition data grouped by potency range)): < 0.1 µM

CC(C)(C(=O)Nc1ncc(-c2cncc(F)c2)cc1F)c1csc(NS(=O)(=O)C2CC2)n1 [T230, 2-(2-(cyclopropanesulfonamido)thiazol-4-yl)-N-(5,5′-difluoro-[3,3′-bipyridin]-6-yl)-2-methylpropanamide]
IC50 [1]: < 0.1 µM
